Reference: patent publication US8552066B2, “Modified chalcone compounds as antimitotic agents” (Arizona Biomedical Research Commission, priority 2006, dated 2013)
Where two headings read alike, the source gives them in different places.

Key:
[1] = test system: CCRF-CEM; test: NCI 60-cell-line cancer screen, growth inhibition (SRB); format: cell-based; conditions: Leukemia CCRF-CEM, duplicate evaluations
Protocol: (§1) Cell growth inhibition studies whose results are reported above were carried out at the National Cancer Institute essentially as follows. Cells grown in RPMI 1640 medium containing 5% fetal bovine serum and 2 mM L-glutamine were inoculated into 96-well microtiter plates, which were incubated for 24 hours prior to addition of CMAC-1 at five concentrations. After 48 hours, cold trichloroacetic acid was added, and the plates were washed and air dried. The cells were stained with sulforhodamine B (SRB), and the absorbance was read on an automated plate reader at a wavelength of 515 nm. The percentage growth was calculated at each of the drug concentrations. The growth inhibition of 50% (GI50) was then calculated. The GI50 is the drug concentration resulting in a 50% reduction in the net protein increase (as measured by SRB staining) in control cells during the drug incubation.

[2] = test system: EKVX; test: as above; format: cell-based; conditions: NSCLC EKVX, duplicate evaluations
Protocol: as §1

[3] = test system: HCT-15; test: as above; format: cell-based; conditions: Homo sapiens
Protocol: as §1

[4] = test system: HL60-(TB); test: as above; format: cell-based; conditions: Homo sapiens
Protocol: as §1

[5] = test system: HOP-62; test: as above; format: cell-based
Protocol: as §1

[6] = test system: HS 578T; test: as above; format: cell-based; conditions: Breast HS 578T, duplicate evaluations
Protocol: as §1

[7] = test system: HT29; test: as above; format: cell-based
Protocol: as §1

[8] = test system: K562; test: as above; format: cell-based; conditions: Homo sapiens
Protocol: as §1

[9] = test system: M14; test: as above; format: cell-based; conditions: Homo sapiens; Melanoma M14; 48 hours; duplicate evaluations
Protocol: as §1

[10] = test system: MALMI-3M; test: as above; format: cell-based; conditions: Melanoma MALMI-3M, duplicate evaluations
Protocol: as §1

[11] = test system: MCF7; test: as above; format: cell-based
Protocol: as §1

[12] = test system: MDA-MB-435; test: as above; format: cell-based; conditions: Homo sapiens
Protocol: as §1

[13] = test system: NCI-H226; test: as above; format: cell-based
Protocol: as §1

[14] = test system: NCI-H322M; test: as above; format: cell-based; conditions: NSCLC NCI-H322M, duplicate evaluations
Protocol: as §1

[15] = test system: NCI-H460; test: as above; format: cell-based
Protocol: as §1

[16] = test system: NCI-H522; test: as above; format: cell-based
Protocol: as §1

[17] = test system: NCI/ADR-RES; test: as above; format: cell-based; conditions: Breast NCI/ADR-RES, duplicate evaluations
Protocol: as §1

[18] = test system: OVCAR-3; test: as above; format: cell-based
Protocol: as §1

[19] = test system: OVCAR-8; test: as above; format: cell-based
Protocol: as §1

[20] = test system: RPMI-8226; test: as above; format: cell-based; conditions: Homo sapiens
Protocol: as §1

[21] = test system: SF-268; test: as above; format: cell-based
Protocol: as §1

[22] = test system: SF-295; test: as above; format: cell-based
Protocol: as §1

[23] = test system: SF-539; test: as above; format: cell-based
Protocol: as §1

[24] = test system: SNB-75; test: as above; format: cell-based
Protocol: as §1

[25] = test system: SR; test: as above; format: cell-based; conditions: Homo sapiens
Protocol: as §1

[26] = test system: SW-620; test: as above; format: cell-based; conditions: Homo sapiens
Protocol: as §1

[27] = test system: U251; test: as above; format: cell-based
Protocol: as §1

[28] = test system: UACC-257; test: as above; format: cell-based
Protocol: as §1

[29] = test system: MIA PaCa-2 cells; test: Growth inhibition assay in pancreatic cancer cell lines (MTS); format: cell-based, human
Protocol: (§2) Growth inhibition assays for determination of GI50 values in pancreatic cancer cell lines were typically carried out essentially as follows. Compounds were individually tested at various concentrations against cancer cells grown in cell culture. The cell viability was determined by use of a standard assay that employs 3-(4,5-dimethylthiazol-2-yl)-5-(3-carboxymethoxyphenyl)-2-(4-sulfophenyl)-2H-tetrazolium, inner salt (MTS), and an electron coupling reagent, phenazine methosulfate (PMS). Absorbance at 490 nm (A490) was measured, and survival curves were obtained by comparison of A490 from treated cells with A490 from untreated cells (control). GI50 values were calculated from nonlinear curve fitting.

[30] = test system: Melanoma; test: NCI 60-cell-line panel, summary by cancer type; format: cell-based
Protocol: as §1

[31] = test system: individual cell lines of central nervous system (CNS) cancer; test: NCI 60-cell-line panel, summary by cancer type; format: cell-based
Protocol: as §1

[32] = test system: individual cell lines of non-small-cell lung cancer (NSCLC); test: NCI 60-cell-line panel, summary by cancer type; format: cell-based
Protocol: as §1

[33] = test system: individual cell lines of ovarian cancer; test: NCI 60-cell-line panel, summary by cancer type; format: cell-based
Protocol: as §1

[34] = test system: individual cell lines of prostate cancer; test: NCI 60-cell-line panel, summary by cancer type; format: cell-based
Protocol: as §1

[35] = test system: renal cancer; test: NCI 60-cell-line panel, summary by cancer type; format: cell-based
Protocol: as §1

[36] = test system: BxPC-3 (pancreatic) cancer cells; test: Growth inhibition assay in pancreatic cancer cell lines (MTS); format: cell-based; conditions: read-out: 50% growth inhibition (GI50)
Protocol: as §2

Compound `C/C=C/C(=O)SCC(=O)Oc1cc(/C=C/C(=O)c2cc(OC)c(OC)c(OC)c2)ccc1OC` [CMAC-1, 3-[3-(crotonylsulfanylmethylcarbonyloxy)-4-methoxyphenyl]-1-(3,4,5-trimethoxyphenyl)propenone] has a GI50 ([1]; Homo sapiens, CCRF-CEM, 48 h) of 71.6 nM, a GI50 ([1]; 48 hours) of 86 nM and a GI50 ([2]; Homo sapiens, EKVX, 48 h) of 2090 nM. The GI50 ([2]; 48 hours) was 1700 nM, the GI50 ([3]; Colon HCT-15, 48 hours, duplicate evaluations) was < 10 nM and the GI50 ([3]; colon HCT-15, Table 2) was < 10 nM. The GI50 ([4]; HL-60, Leukemia HL60-(TB), 48 hours, duplicate evaluations) was < 10 nM, the GI50 ([4]; leukemia HL-60, Table 2) was < 10 nM and the GI50 ([5]; Homo sapiens, HOP-62, 48 h, NSCLC HOP-62, duplicate evaluations) was 1230 nM. For the same compound, the GI50 ([5]; NSCLC HOP-62, 48 hours, duplicate evaluations) was 1000 nM, the GI50 ([6]; 48 hours) was 20.6 nM and the GI50 ([6]; Homo sapiens, Hs-578T, 48 h) was 40.4 nM. The GI50 ([7]; Colon HT29, 48 hours, duplicate evaluations) was 1680 nM, the GI50 ([7]; Homo sapiens, HT-29, 48 h, Colon HT29, duplicate evaluations) was 2870 nM and the GI50 ([8]; K562, leukemia K-562, Table 2) was < 10 nM. The GI50 ([8]; Leukemia K562, 48 hours, duplicate evaluations) was < 10 nM, the GI50 [9] was 62.3 nM and the GI50 ([10]; 48 h) was 74.2 nM. For the same compound, the GI50 ([10]; 48 hours) was 44.7 nM, the GI50 ([11]; Breast MCF7, 48 hours, duplicate evaluations) was 30 nM and the GI50 ([11]; Homo sapiens, MCF7, 48 h, Breast MCF7, duplicate evaluations) was 28.5 nM. The GI50 ([12]; Breast MDA-MB-435, 48 hours, duplicate evaluations) was < 10 nM, the GI50 ([12]; breast cancer cells MDA-MB-435, Table 2) was < 10 nM and the GI50 ([13]; Homo sapiens, NCI-H226, 48 h, NSCLC NCI-H226, duplicate evaluations) was 17200 nM. The GI50 ([13]; NSCLC NCI-H226, 48 hours, duplicate evaluations) was 11200 nM, the GI50 ([14]; Homo sapiens, NCI-H322M, 48 h) was 85.1 nM and the GI50 ([14]; 48 hours) was 70.3 nM. The GI50 ([15]; Homo sapiens, NCI-H460, 48 h, NSCLC NCI-H460, duplicate evaluations) was 52.4 nM, the GI50 ([15]; NSCLC NCI-H460, 48 hours, duplicate evaluations) was 33.5 nM and the GI50 ([16]; Homo sapiens, NCI-H522, 48 h, NSCLC NCI-H522, duplicate evaluations) was 22.4 nM. The GI50 ([16]; NSCLC NCI-H522, 48 hours, duplicate evaluations) was 15.8 nM, the GI50 ([17]; 48 hours) was 32.2 nM and the GI50 ([17]; Homo sapiens, NCI/ADR-RES, 48 h) was 26.2 nM. The GI50 ([18]; Homo sapiens, OVCAR-3, 48 h, Ovarian OVCAR-3, duplicate evaluations) was 11.6 nM, the GI50 ([18]; Ovarian OVCAR-3, 48 hours, duplicate evaluations) was < 10 nM and the GI50 ([19]; Homo sapiens, OVCAR-8, 48 h, Ovarian OVCAR-8, duplicate evaluations) was 43.9 nM. The GI50 ([19]; Ovarian OVCAR-8, 48 hours, duplicate evaluations) was 47.1 nM, the GI50 ([20]; Leukemia RPMI-8226, 48 hours, duplicate evaluations) was < 10 nM and the GI50 ([20]; leukemia RPMI-8226, Table 2) was < 10 nM. The GI50 ([21]; CNS SF-268, 48 hours, duplicate evaluations) was 63.8 nM, the GI50 ([21]; Homo sapiens, SF-268, 48 h, CNS SF-268, duplicate evaluations) was 81.1 nM and the GI50 ([22]; CNS SF-295, 48 hours, duplicate evaluations) was 231 nM. For the same compound, the GI50 ([22]; Homo sapiens, SF-295, 48 h, CNS SF-295, duplicate evaluations) was 215 nM, the GI50 ([23]; CNS SF-539, 48 hours, duplicate evaluations) was < 10 nM and the GI50 ([23]; Homo sapiens, 48 h, CNS SF-539, duplicate evaluations) was 16.4 nM. The GI50 ([24]; CNS SNB-75, 48 hours, duplicate evaluations) was < 10 nM, the GI50 ([24]; Homo sapiens, SNB-75, 48 h, CNS SNB-75, duplicate evaluations) was 16.5 nM and the GI50 ([25]; Leukemia SR, 48 hours, duplicate evaluations) was < 10 nM. The GI50 ([25]; leukemia SR, Table 2) was < 10 nM, the GI50 ([26]; Colon SW-620, 48 hours, duplicate evaluations) was < 10 nM and the GI50 ([26]; colon SW-620, Table 2) was < 10 nM. It also gave a GI50 ([27]; CNS U251, 48 hours, duplicate evaluations) of 52.1 nM, a GI50 ([27]; Homo sapiens, U-251, 48 h, CNS U251, duplicate evaluations) of 42.7 nM and a GI50 ([28]; Homo sapiens, UACC-257, 48 h, Melanoma UACC-257, duplicate evaluations) of 3580 nM. The GI50 ([28]; Melanoma UACC-257, 48 hours, duplicate evaluations) was 4140 nM, the GI50 ([29]; Homo sapiens, MIA PaCa-2 pancreatic cancer cells in culture, read-out: concentration required for 50% growth inhibition (GI50)) was 16 nM and the GI50 [30] was < 75 nM. The GI50 [31] was < 50 nM, the GI50 [32] was < 50 nM and the GI50 [33] was < 50 nM. For the same compound, the GI50 [34] was < 50 nM, the GI50 [35] was < 150 nM and the melting point was 123 to 125.5 °C.
For `C/C=C/C(=O)SCC(=O)OCc1ccc(/C=C/C(=O)c2cc(OC)c(OC)c(OC)c2)o1` [CMAF-1, 3-[5-(crotonylsulfanylmethylcarbonyloxymethyl)-2-furyl]-1-(3,4,5-trimethoxyphenyl)propenone], the GI50 ([29]; human pancreatic cancer cell (MIA PaCa-2) growth in culture, read-out: GI50) was 17000 nM.
In the case of `C=C(Cl)C(=O)Oc1cc(C=CC(=O)c2cc(OC)c(OC)c(OC)c2)ccc1OC` [Entry 6, 3-[3-(2-Chloroacryloyloxy)-4-methoxyphenyl]-1-(3,4,5-trimethoxyphenyl)propenone], the GI50 ([29]; MIA PaCa-2 pancreatic cancer cells in culture, read-out: concentration required for 50% growth inhibition (GI50)) is reported as 56 nM and the GI50 [36] is reported as 4500 nM.
